Earlier results on 1 molecule are cited in patent US8461086B2, “Microcapsule composition for inhibiting an ethylene response in plants, method for preparing microcapsules, and method using the microcapsule composition” (Lytone Enterprise, Inc., priority 2009, dated 2013).

In one series the test system is humans and livestock. Particulars: within the effective concentration range.
The subject of a further series is plants. Particulars: applied to plants.

In the case of `CC1=CC1` [Example 1-MCP, 1-methylcyclopropene], the “harm to humans and livestock” value in the series with humans and livestock is listed as “does no harm”. Besides, the effective dosages in the series on plants is on record as 0.1 to 1.0 ppm (vol/vol).
